The structures appear in SMILES notation. pIC50: −log10 of the molar value.

The text below walks through data of patent US6306911A, “Substituted amino acids as neutral sphingomyelinase inhibitors” (Ortho-McNeil Pharmaceutical, Inc., priority 2000, dated 2001).

For the first assay, the system named is neutral sphingomyelinase. The experiment in a line: Sphingomyelinase Assay: neutral sphingomyelinase inhibition, release of 14C-phosphocholine from 14C-sphingomyelin, U937 cell lysate. The following applies: U937 cell lysate as enzyme, 14C-sphingomyelin substrate, pH 7.5, 1 hour at 37. In kind it is biochemical. On the procedure:
Neutral sphingomyelinase is an enzyme that cleaves sphingomyelin to yield ceramide and phosphocholine. […] After cleavage, an extraction separates the labeled, water-soluble phosphocholine from the intact substrate and the ceramide.
Cell Iysates are made by nitrogen cavitation of harvested cells in Buffer A (20 mM Tris, pH 7.4, 250 mM sucrose, 10 mM EGTA, 10 ug/ml leupeptin, 1 mM PMSF, […]). Lysates are flash frozen and stored at -40 C.
Substrate Preparation: N-methyl-^14 C-sphingomyelin (specific activity 50 mCi/mM) and phosphatidylinositol are evaporated under a stream of nitrogen and resuspended at an equimolar concentration of 0.1 mM in water with 0.5% Triton X-100. The solution is vortexed for 30 minutes and then sonicated for 30 minutes.
Sphingomyelinase Assay: The reaction mixture contains 25 ul 2X Tris Mg buffer (200 mM Tris-HCl, pH 7.5. 160 mM MgCl), 10 ul ^14 C-sphingomyelin substrate, 10 ul lysate (enzyme) and 5 ul test compound or vehicle for a final volume of 50 l. The assays are carried out in 1.5 ml microcentriftige tubes and are incubated for 1 hour at 37. The reaction is stopped with 30 l of water and 175 l chloroform/methanol (2:1, v:v). The tubes arc vortexed vigorously, centrifuged for 5 minutes in a microfuge at maximum speed and 50 l of the upper, aqueous phase is counted in a liquid scintillation counter. Alternatively, the assay may be set up in wells of a 96-well PCR plate in identical proporations to a total volume of 50 l. Then the plates are incubated at 37 C incubator for 1 hour. H2 O (30 l) is added to all plates and the plates are again incubated for 1 hour. Chloroform-methanol (2:1) is added in a volume of 175 l followed by vigorous mixing. The plates are sealed with adhesive covers and centrifuged at 3000 rpm for 10 minutes at 5 C. The plates are uncovered and 50 µl of upper, aqueous phase is transferred to a Flashplate™(NEN) scintillation proximity assay plate. The Flashplates are dried overnight, sealed, and counted using a Topcount scintillation counter.
Compounds that are antagonists of neutral sphingomyelinase are reported as a positive value for inhibition in Table 4.
A word on the pIC50: it is −log10 of the IC50, conventionally taken in molar units. `COC(=O)[C@H](CO)[N+](C)(C/C=C/c1cccc2ccccc12)C/C=C/c1cccc2ccccc12` [Compound 14] had a pIC50 of 4.72. The same measure, in the same setting: the same measure for `CC(C(=O)OC(C)(C)C)[N+](C)(CC=Cc1cccc2ccccc12)CC=Cc1cccc2ccccc12` (centres unmarked) [Compound 15]: 4.55; for `C[C@@H](C(=O)O)N(CC#Cc1cccc2ccccc12)CC#Cc1cccc2ccccc12` [Compound 17, Alanine, N,N-Bis[3-(1-naphthalenyl)-2-propynyl]--]: 5.00.

Compound `O=C(O)C(CO)N(CCCc1cccc2ccccc12)CCCc1cccc2ccccc12` (centres unmarked) [Compound 23] showed a pIC50 of 4.05.

Staying with this assay, now noted: highest concentration tested (100 uM); IC50 not determined; U937 cell lysate, 1 hour at 37.
Regarding `C[C@@H](O)[C@@H](C(=O)O)N(C/C=C/c1cccc2ccccc12)C/C=C/c1cccc2ccccc12` [Compound 10], the “percentage of enzyme inhibition” value is 21%. The same measure, in the same setting: then `C[C@@H](C(=O)O)N(C/C=C/c1ccnc2ccccc12)C/C=C/c1ccnc2ccccc12` [Compound 13], with < 5%; and `C[N+](C/C=C/c1cccc2ccccc12)(C/C=C/c1cccc2ccccc12)[C@@H](CO)C(=O)O` [Compound 16], with 24%.

With `O=C(O)C(CO)N(CC#Cc1cccc2ccccc12)CC#Cc1cccc2ccccc12` (centres unmarked) [Compound 18], the “percentage of enzyme inhibition” value is listed as < 5%.

Turning to `COc1ccc(C#CCN(CC#Cc2ccc(OC)cc2)[C@@H](C)C(=O)O)cc1` [Compound 19], the “percentage of enzyme inhibition” value was 27%. Consider `CC(C(=O)O)N(Cc1cccc2ccccc12)Cc1cccc2ccccc12` (centres unmarked) [Compound 20], for which the “percentage of enzyme inhibition” value was < 5%. Take `O=C(O)C(CO)N(Cc1cccc2ccccc12)Cc1cccc2ccccc12` (centres unmarked) [Compound 21]: the “percentage of enzyme inhibition” value was < 5%. As for `O=C(O)C(CO)N(CCc1cccc2ccccc12)CCc1cccc2ccccc12` (centres unmarked) [Compound 22], the “percentage of enzyme inhibition” value is given as < 5%. On the same count and under the same terms, then `CC(C(=O)OC(C)(C)C)N(CC=Cc1ccnc2ccccc12)CC=Cc1ccnc2ccccc12` (centres unmarked) [Compound 24], with < 5%. On to `CC(C(=O)O)N(CCc1cccc2ccccc12)CCc1cccc2ccccc12` (centres unmarked) [Compound 25], for which the “percentage of enzyme inhibition” value was < 5%.
